Experimental data: US20070031511A1, “Method of treatment” (priority 2003, published 2007)
Read-outs that look alike come from different tables or passages of the source.

Columns and labels:
[1] = Quenching of gastrin tryptophan fluorescence by bismuth ions; assay type: binding; conditions: pH 4.0
Source text: Values from the indicated number of independent experiments were combined to obtain the mean values (±S.E.) presented above.

IMGE-5 cells = assay: IMGE-5 cell proliferation, [3H]-thymidine incorporation; assay type: cell-based, mice; conditions: IMGE cells, thymidine uptake; best fit at saturating concentration
Experimental: In some cases cell proliferation was also measured by [^3H]-thymidine incorporation as described previously (Oiry et al., 2000). Briefly, IMGE-5 cells (10^5/well) were seeded in 24-well plates in medium containing 10% FBS and 1 unit/ml γ-interferon. On the next day cells were serum starved and shifted to 39° C. for 24 hr. Cells were then incubated with or without various compounds at 39° C. for 17 h in medium supplemented with 0.2% bovine serum albumin only. Cells were incubated with 0.5 μCi of [^3H] thymidine in the same medium at 39° C. for 4 h, washed twice with PBS (2.7 mM KCl, 142 mM NaCl, 1.5 mM KH2PO4, 10 mM Na2HPO4, pH 6.95) containing 0.2% bovine serum albumin and incubated at 4° C. for 30 min with 5% trichloroacetic acid. Finally cells were washed with 95% ethanol to remove unincorporated [^3H] thymidine, and lysed with 1 M NaOH. Lysates were transferred to counting vials and neutralized with 1M HCl. The radioactivity of each lysate was counted in a β-counter after the addition of 10 ml of Pico-fluor 40 solution (Packard, Meriden, Conn.).
In some experiments IMGE-5 cells were seeded in a 96-well plate at a density of 3-5×10^3 cells/well in.DMEM containing 10% FBS, and cultured at 33° C.. On the following day, the cells were serum-starved at 33° C. for 24 h. […] The cells were cultured at 39° C. for 24 h, and then harvested using a NUNC cell harvester. The amount of ^3H-thymidine incorporated through DNA synthesis was detected with a β-counter (Packard, Meriden, Conn.). […]

[2] = system: IMGE-5 gastric epithelial cells; assay: Ggly-stimulated inositol phosphate production in IMGE-5 cells; assay type: cell-based, mice
Experimental: Intracellular inositol phosphate production was determined as described previously (Qian et al, 1993). IMGE-5 cells (10^5 cells/ml) were plated in 24-multiwell culture plates in DMEM supplemented with 10% FBS, 200 IU/ml penicillin and 200 μg/ml streptomycin. 24 h later, cells were incubated with DMEM supplemented with antibiotics and Myo-[2-^3H]inositol (2.5 μCi/well) and shifted to 39° C. for 16 h. Cells were then washed with pre-warmed DMEM and incubated (20-30 minutes, 37° C.) with DMEM supplemented with 20 mM LiCl. Loaded cells were then washed in 1 ml of IP buffer (135 mM NaCl, 20 mM N-(2-hydroxyethyl)piperazine-N′-(2-ethanesulfonic acid), 2 mM CaCl2, 1.2 mM MgSO4, 1 mM ethylene glycol-bis(2-aminoethylether)-N,N,N′,N′-tetraacetic acid, 10 mM LiCl, and 0.5% bovine serum albumin, pH 7.45) and incubated with or without agonist in a final volume of 0.5 ml of IP buffer. After 1-h incubation at 37° C., the reaction was stopped by removing the incubation medium and adding 1 ml of a mixture of ethanol/HCl (2000:1; v/v). One ml of each aliquot was applied to a column containing 1.6 ml of a 1:2 (v/v) Dowex AG-1-X8 anion exchange resin in distilled water. […] The radioactivity of each eluate was counted after addition of Complete phase combining system solution (Amersham, UK). […]
Ggly-stimulated inositol phosphate production was measured in HT29 human colorectal carcinoma cells.

[3] = read-out: Kd for binding of ferric ions to Ggly; pH 4.0; taken from Baldwin et al. (2001); cited from earlier work
rectal mucosa = assay: Proliferation in the rectal mucosa of rectally defunctioned rats (metaphase-arrested cells); assay type: in vivo; conditions: colloidal bismuth subcitrate 135 mg/kg/12 hours oral gavage 5 days per week, 4 weeks; Ggly 2.5 nmol/kg/hr
Experimental: DFO (400 mg/kg) was administered intraperitoneally thrice weekly, and bismuth ions were administered as colloidal bismuth subcitrate (135 mg/kg/12 hours) by oral gavage 5 days per week. After 4 weeks, the rats were injected with vincristine to arrest cycling cells in metaphase, and sacrificed 3 hrs later. Crypt heights in the rectal mucosa, and the number of metaphase arrested cells per crypt, were then determined microscopically.

CCK-2 receptor = target: T1, CCK-2 receptor (Homo sapiens, UniProt P32239); assay: Gamide-stimulated proliferation in CHO cells stably transfected with the CCK-2 receptor; assay type: cell-based; set-up: expressed in transfected cells; host or cells: CHO
T1 sequence (P32239 1-447): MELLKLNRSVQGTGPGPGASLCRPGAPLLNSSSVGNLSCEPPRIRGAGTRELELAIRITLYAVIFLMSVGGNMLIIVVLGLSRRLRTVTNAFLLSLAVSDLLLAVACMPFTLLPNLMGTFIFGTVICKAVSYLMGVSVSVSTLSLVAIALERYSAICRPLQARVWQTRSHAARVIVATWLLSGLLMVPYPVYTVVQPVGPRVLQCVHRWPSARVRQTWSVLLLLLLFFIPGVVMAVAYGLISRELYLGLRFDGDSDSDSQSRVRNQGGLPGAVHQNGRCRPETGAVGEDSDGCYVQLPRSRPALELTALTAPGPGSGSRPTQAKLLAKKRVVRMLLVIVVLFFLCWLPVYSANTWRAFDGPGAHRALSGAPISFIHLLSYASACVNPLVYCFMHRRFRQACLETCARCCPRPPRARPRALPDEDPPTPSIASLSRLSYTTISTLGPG

Ggly receptor = assay: [125I]-Ggly binding to the Ggly receptor on IMGE-5 cells; set-up: species or system mice
Experimental: [^125I]-Ggly binding assays were carried out by previously described methods (Yang et al, 2001). Briefly, 5×10^5 IMGE-5 cells/well were seeded in 6-well plates and grown at 33° C. for 24 hours. The cells were then serum starved and shifted to 39° C. for 24 h. […] Cells were then washed three times in ice-cold PBS and lysed with 1 M NaOH, and the amount of radioactivity bound was measured in a γ-counter.

Compound: CSCC[C@H](NC(=O)[C@H](Cc1c[nH]c2ccccc12)NC(=O)CNC(=O)[C@H](Cc1ccc(O)cc1)NC(=O)[C@H](C)NC(=O)[C@H](CCC(=O)O)NC(=O)[C@H](CCC(=O)O)NC(=O)[C@H](CCC(=O)O)NC(=O)[C@H](CCC(=O)O)NC(=O)[C@H](CCC(=O)O)NC(=O)[C@H](CC(C)C)NC(=O)[C@H](Cc1c[nH]c2ccccc12)NC(=O)[C@@H]1CCCN1C(=O)CNC(=O)[C@@H]1CCC(=O)N1)C(=O)N[C@@H](CC(=O)O)C(=O)N[C@@H](Cc1ccccc1)C(N)=O [Gamide]
- Kd ([1]; single experiment, two independent sites with identical affinities, read-out: Kd for bismuth ions, line of best fit of FIG. 11): 8.6 ± 1.2 µM
- Kd ([1]; two identical independent binding sites, mean ± S.E. of 5 experiments, read-out: Bismuth Kd): 8.2 ± 0.8 µM

Compound: Ggly: glycine-extended gastrin17, 18 amino acid non-amidated gastrin, SEQ ID NO:4, residues 55-72 of progastrin (XGPWLEEEEEAYGWMDFG; (1)..(1) pyroglutamate; listed as Homo sapiens)
- S (%), maximum % stimulation (IMGE-5 cells): 37.3%
- Ggly stimulation of inositol phosphate production compared to the control [2]: 110%
- Kd [3]: 0.6 µM

Compound: [Bi+3] [bismuth ions]
- Effect on stimulation of proliferation of the rectal mucosa by Ggly (rectal mucosa): completely abolished
- Effect on Gamide-stimulated proliferation (CCK-2 receptor): did not significantly inhibit
- Inhibition of [125I]-Ggly binding (Ggly receptor; 2 moles Bi3+/mole Ggly): 50%
- Inhibition of [125I]-Ggly binding (Ggly receptor; 8 or 32 moles Bi3+/mole Ggly): complete inhibition
